From patent publication US20190316211A1, “ONCOGENIC ALTERNATIVE SPLICING SWITCH OF PACE4 IN CANCER” (SOCIETE DE COMMERCIALISATION DES PRODUITS DE LA RECHERCHE …, priority 2016, published 2019)

Legend:
Assay type in all cases: cell-based
PACE4-FL = target: T1, PACE4-FL (Homo sapiens, UniProt P29122); assay: PACE4 secretion assay, displacement by heparin; conditions: increasing doses
T1 construct: V5 (C); His (C); expressed in transfected cells
T1 sequence (P29122 150-969): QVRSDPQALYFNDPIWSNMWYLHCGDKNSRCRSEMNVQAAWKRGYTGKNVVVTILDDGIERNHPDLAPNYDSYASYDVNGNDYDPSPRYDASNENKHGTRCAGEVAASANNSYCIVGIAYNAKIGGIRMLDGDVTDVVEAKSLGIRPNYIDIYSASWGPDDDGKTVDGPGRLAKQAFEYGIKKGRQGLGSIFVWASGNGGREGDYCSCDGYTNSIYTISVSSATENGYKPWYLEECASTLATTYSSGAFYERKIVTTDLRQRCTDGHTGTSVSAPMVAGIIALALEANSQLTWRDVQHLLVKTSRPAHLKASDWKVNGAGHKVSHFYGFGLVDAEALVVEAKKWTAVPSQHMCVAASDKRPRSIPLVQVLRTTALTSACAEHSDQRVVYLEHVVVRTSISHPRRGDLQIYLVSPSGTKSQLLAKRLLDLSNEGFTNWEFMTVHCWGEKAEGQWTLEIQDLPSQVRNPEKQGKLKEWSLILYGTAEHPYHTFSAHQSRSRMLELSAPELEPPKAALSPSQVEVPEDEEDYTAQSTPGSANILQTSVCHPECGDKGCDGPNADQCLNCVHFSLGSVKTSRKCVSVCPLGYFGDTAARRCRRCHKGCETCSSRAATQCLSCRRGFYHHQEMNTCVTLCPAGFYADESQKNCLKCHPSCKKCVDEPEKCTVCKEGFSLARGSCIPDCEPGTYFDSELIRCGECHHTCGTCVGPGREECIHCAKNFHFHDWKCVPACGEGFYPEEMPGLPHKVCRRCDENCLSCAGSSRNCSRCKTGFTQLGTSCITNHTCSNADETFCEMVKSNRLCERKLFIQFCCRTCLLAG
Source text: (§1) The first major distinction observed was the lack of secretion of PACE4-altCT accompanied with intracellular retention when compared to PACE4-FL which was efficiently secreted in the medium (FIGS. 7B and C). This observation correlated with the distinct cell distribution observed for each isoforms in IHC, i.e. the PACE4-FL being more accumulated at the membrane/extracellular surface compared to PACE4-altCT being restricted to the vesicular intracellular compartment (FIG. 3D). PACE4, at least PACE4-FL, is known to be secreted in the medium and to be retained in the extracellular matrix through the binding to heparan sulfate proteoglycans by its cysteine-rich domain and to be displaceable by heparin.
(§2) For PACE4 secretion assays, cells were plated at equal densities in 6-well plates for 24 h in complete medium. 24 h later, the medium was replaced by the minimal volume required of fresh culture medium (600 μL without FBS) and the cells were either allowed to secrete for the indicated time (for secretion kinetics) or (for inhibitor treatments) allowed to secrete for an additional 24 h in the presence of the indicated concentrations of agents (heparin (Sandoz, Niirnberg, Germany), 2-bromopalmitate (Sigma Aldrich), FTI-277 (Sigma Aldrich), GGTI-2133 (Santa Cruz Biotechnology Inc., Santa Cruz, Calif., USA)

PACE4-altCT = target: T2, PACE4-altCT (Homo sapiens, UniProt P29122); assay: PACE4 secretion assay, displacement by heparin; conditions: increasing doses
T2 construct: V5 (C); His (C); expressed in transfected cells
T2 sequence (P29122 with tags, fused parts or gaps limits assumed): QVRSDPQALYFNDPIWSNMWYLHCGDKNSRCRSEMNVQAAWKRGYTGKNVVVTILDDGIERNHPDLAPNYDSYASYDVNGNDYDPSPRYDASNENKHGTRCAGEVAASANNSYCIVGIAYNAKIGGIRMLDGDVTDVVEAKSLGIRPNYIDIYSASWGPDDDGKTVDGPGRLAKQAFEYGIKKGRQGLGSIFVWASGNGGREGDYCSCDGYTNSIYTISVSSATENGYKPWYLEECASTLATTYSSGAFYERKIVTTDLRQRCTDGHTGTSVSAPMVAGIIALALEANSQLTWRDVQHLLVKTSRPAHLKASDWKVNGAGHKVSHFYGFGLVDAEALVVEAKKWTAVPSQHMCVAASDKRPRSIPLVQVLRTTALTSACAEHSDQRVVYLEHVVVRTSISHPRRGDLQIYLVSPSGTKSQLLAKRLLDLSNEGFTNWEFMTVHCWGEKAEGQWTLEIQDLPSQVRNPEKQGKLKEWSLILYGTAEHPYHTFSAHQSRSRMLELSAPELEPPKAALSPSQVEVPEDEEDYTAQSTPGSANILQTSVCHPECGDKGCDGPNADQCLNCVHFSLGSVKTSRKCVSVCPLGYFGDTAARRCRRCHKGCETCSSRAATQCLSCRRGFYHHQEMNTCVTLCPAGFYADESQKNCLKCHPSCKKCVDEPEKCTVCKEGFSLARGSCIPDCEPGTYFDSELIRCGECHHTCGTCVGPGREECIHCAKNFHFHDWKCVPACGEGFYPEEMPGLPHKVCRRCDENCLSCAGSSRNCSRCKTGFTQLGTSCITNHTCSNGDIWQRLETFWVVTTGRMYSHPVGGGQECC
Source text: as §1, §2

[1] = tested on: CpG dinucleotides of interest in PCSK6 gene; assay: CpG methylation status analysis by pyrosequencing; conditions: DU145 and LNCaP cells, 72 h, refreshed every 24 h
Source text: FIG. 5 illustrates decitabine (5-aza-dC) efficiency at hypomethylating CpG dinucleotides of interest in PCSK6 gene, showing in (A) schematic representation of the 3′ extremity of PCSK6 gene, putting emphasis on the coding and non-coding region between exon 24, exon 25 and exon 25 alt, wherein ChiP-Seq enriched regions as viewed in UCSC genome browser ChiP-Seq are represented as ovals, each CpG nucleotide analyzed is highlighted, and the inversion of 5′ and 3′ ends is shown for reading purposes; (B) DU145 and LNCaP cells (C) were treated with decitabine at the indicated concentrations for 72 h (medium and decitabine being refreshed every 24 h) and DNA was extracted and used for CpG methylation status analysis using pyrosequencing.
DNA was purified from 14 pairs of tumoral and non-tumoral prostate biopsies and from DU145 and LNCaP cells treated with 5axa-dC using DNeasy Blood & Tissue Kit (Qiagen, #69504). Concentration, yield and purity of gDNA samples were measured using spectrometry. All samples provided good gDNA yield and quality (A260/A280 ratio between 1.7 and 2.0). Gold standard pyrosequencing technology was used to determine base-specific cytosine methylation levels located upstream of guanines (sequence called CpG dinucleotides). […] Overall, nine potentially methylated cytosines (in a CpG dinucleotides context) were analyzed at the PCSK6 gene locus.

[2] = tested on: CTCF binding to PCSK6 alternative terminal exon regions; assay: Chromatin immunoprecipitation with anti-CTCF antibody; conditions: DU145 and LNCaP cells treated for 72 h
Protocol: Cells were cultured in 150 mm culture dishes and submitted to crosslinking through the addition of formaldehyde to a final concentration of 1.1% for 10 min at room temperature followed by a quenching step with 125 mM glycine for another 5 min. Cells were washed twice with ice-cold PBS, collected using a cell scraper and frozen in liquid nitrogen and stored at −80° C. until analyses. Cell pellets were resuspended in HEPES 10 mM pH 6.5; 0.5 mM EDTA, 0.25% Triton-X-100 and centrifugated at 4,000 rpm at 4° C. for 5 min. Pellet was further lysed by adding 200 μL of Tris 50 mM pH 8.1; 10 mM EDTA, 1% SDS and passing 3 times through a 28 G syringe. Cell preparations were incubated 1 h at 4° C. with constant agitation and nuclei were pelleted by a centrifugation at 5,000 rpm. […] DNA fragmentation was routinely assessed by agarose gel electrophoresis using 10 μL of the fragmented DNA solution (beforehand treated with RNase A 10 μg/mL for 10 min). For each IP, 350 μg of DNA were used (based on concentration determined using the OD260 nm) and 5% of the corresponding volumes were kept aside as Input DNA for quantitation. […] 3 μL of the purified DNA were further used for qPCR analyses and quantitation was established using the 1% input as a standard.

LNCaP cells = assay: PACE4 exon 25 splicing index (PACE4-altCT/PACE4-FL mRNA) by qPCR; conditions: treated for 72 h
Protocol: (§3) For actinomycin-D (Sigma Aldrich) or cycloheximide (Sigma Aldrich) treatments, compounds were first dissolved in DMSO, and diluted to a final concentration of 5 μg/mL and 40 μg/mL in the culture medium respectively. Actinomycin-D treatment never exceeded 8 h, which is the time-frame prior to early apoptosis induction. For treatments wit 5-aza-2′-deoxy-cytidine (Sigma Aldrich), compound was first dissolved in DMSO and further diluted prior to addition to cell culture medium, which was changed every day and replaced with fresh one containing the compound for a total exposure of 72 h. […]
(§4) 1 μg RNA was DNase I-treated (Invitrogen), reverse-transcribed using Superscript II reverse transcriptase (Invitrogen), and RNase H-treated (Ambion, Austin, Tex.) before quantitative PCR performed using a Stratagene Mx3005P instrument. Relative expression levels were calculated using β-actin as a reference gene with the formula (1+amplification efficiency)^−(CT). […]

DU145 cells = assay: as above; conditions: DU145, treated for 72 h
Protocol: as §3, §4

displacement into the medium by heparin (PACE4-FL)	displacement into the medium by heparin (PACE4-altCT)	CTCF ChIP enrichment of intra-exonic and upstream region [2]	Molecule	CpG hypomethylation [1]	change of splicing index (LNCaP cells)	change of splicing index (DU145 cells)
increased amount in the medium	could not be displaced	–	heparin	–	–	–
–	–	clear enrichment	Nc1ncn([C@H]2C[C@H](O)[C@@H](CO)O2)c(=O)n1 [decitabine, 5-aza-2′-deoxycytidine]	sensitive to decitabine in a dose-dependent manner	increased in a dose-dependent manner	increased in a dose-dependent manner
